This passage reports inhibition and IC50 results from patent US10618898B2, “Hydroxyl purine compounds and use thereof” (GUANGDONG RAYNOVENT BIOTECH CO., LTD., priority 2015, dated 2020).

The first assay has as its system TNF-α. In words: In vitro induction of TNF-α in rat blood by LPS (ELISA). The class given is cell-based. The settings on record: test compound final concentration 100 μM, 5 hours, read-out: Rate of TNFα inhibition. How it is done: Experiment Objective: Determining the impact of the compounds on induction of TNF-α in rat blood by LPS in vitro, and evaluating the effect of the compounds on inhibiting induction of TNF-α in rat blood by LPS.
Sprague Dawley rats (male, 210-260 g, 8-10 weeks old, Shanghai SLAC)
Rat TNF-alpha Quantikine ELISA Kit (R&D, # SRTA00)
The test compound solutions were prepared at a concentration of 1 mM. 40 μl of each of the solutions was added into a 48-well cell culture plate (at the final concentration of 100 μM). After the rat was anesthetized with isoflurane, the blood was collected from the heart (heparin for anticoagulation). The blood was added into the 48-well plate containing the test compound, in the amount of 320 μL per well. The 48-well plate was placed into a cell incubator, and then taken out after 30 minutes of incubation. Then, 40 μL of LPS solution (100 μg/ml) was added and mixed. The 48-well plate was placed into the incubator for further incubation. After 5 hours, the 48-well plate was taken out and the blood sample was transferred to a 1.5 mL centrifuge tube, followed by centrifugation in a centrifuge (4,500 rpm, 4° C., 5 minutes). The supernatant was separated and the plasma was obtained. […] In the next day, the TNF-α level of the plasma samples was determined by using the R&D ELISA kit in accordance with the instructions.
In general terms: An ELISA detects its analyte on a solid surface through an enzyme-linked reagent.
Turning to `Cn1cnc2c1c(=O)n(CC1(C)COC1)c(=O)n2C` [Example 3, 3,7-Dimethyl-1-((3-methyloxetan-3-yl)methyl)-1H-purin-2,6(3H, 7H)-dione], the inhibition (commonly the relative decrease from the control value, in per cent) at 100 µM was 60 to 80%.
On the same count and under the same terms, the figure for `Cn1cnc2c1c(=O)n(CCN1CCOCC1)c(=O)n2C` [Example 17, 3,7-Dimethyl-1-(2-morpholinoethyl)-purin-2,6-dione] is less than 60%.

The target of another assay is T1, Recombinant full-length human PDE2A protein (Homo sapiens, UniProt O00408).
T1 construct: Recombinant full-length human PDE2A protein; GST (N); host or cells: insect Sf9 cells (baculovirus)
T1 sequence (O00408 whole entry): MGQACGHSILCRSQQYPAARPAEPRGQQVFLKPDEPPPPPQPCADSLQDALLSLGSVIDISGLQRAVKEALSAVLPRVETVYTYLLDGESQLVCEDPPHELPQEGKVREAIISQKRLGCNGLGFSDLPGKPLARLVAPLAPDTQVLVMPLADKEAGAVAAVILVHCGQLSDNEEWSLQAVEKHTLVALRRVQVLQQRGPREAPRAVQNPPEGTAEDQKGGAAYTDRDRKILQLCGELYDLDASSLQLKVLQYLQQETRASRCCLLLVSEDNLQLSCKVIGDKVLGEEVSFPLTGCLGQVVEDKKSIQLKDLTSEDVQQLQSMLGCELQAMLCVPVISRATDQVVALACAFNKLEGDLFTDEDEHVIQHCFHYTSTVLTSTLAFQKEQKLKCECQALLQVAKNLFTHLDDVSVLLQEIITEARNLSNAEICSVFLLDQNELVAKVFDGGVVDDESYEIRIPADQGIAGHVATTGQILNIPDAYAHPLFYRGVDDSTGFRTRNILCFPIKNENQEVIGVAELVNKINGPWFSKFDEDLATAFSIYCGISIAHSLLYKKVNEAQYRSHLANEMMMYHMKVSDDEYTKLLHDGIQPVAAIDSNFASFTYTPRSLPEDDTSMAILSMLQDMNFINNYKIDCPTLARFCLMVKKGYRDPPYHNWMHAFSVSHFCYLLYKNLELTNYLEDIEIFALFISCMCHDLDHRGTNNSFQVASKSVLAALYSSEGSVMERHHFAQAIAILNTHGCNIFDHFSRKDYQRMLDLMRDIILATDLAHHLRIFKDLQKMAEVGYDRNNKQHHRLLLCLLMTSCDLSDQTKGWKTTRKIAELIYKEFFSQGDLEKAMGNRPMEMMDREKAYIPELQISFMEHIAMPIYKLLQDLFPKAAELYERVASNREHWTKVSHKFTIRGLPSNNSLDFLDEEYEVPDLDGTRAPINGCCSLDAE
As to the kind of experiment: In vitro PDE2 phosphodiesterase inhibitory activity (fluorescence polarization, Transcreener AMP2/GMP2). It counts as biochemical.
Conditions: not given
On the procedure: Experiment Objective: Determining the concentration of AMP/GMP produced in the reaction system by way of detecting the AlexaFluor 633 fluorescent dye substituted on AMP/GMP antibody by fluorescence polarization assay, and thereby to calculate the IC50 value of PDE2 phosphodiesterase inhibition by the test compound. Experimental Materials: Detecting buffer solution: 10 mM Tris-HCl, pH 7.5, 5 mM MgCl2, 0.01% Brij 35, 1 mM DTT, and 1% DMSO. Enzyme: Recombinant full-length human PDE2A protein with an N-terminal GST-tag expressed in insect Sf9 cells by baculovirus Substrate: 1 μM cGMP Detection System: Transcreener® AMP^2/GMP^2 antibody, AMP2/GMP2 AlexaFluor 633 fluorescent dye Experimental Operation:
The enzyme solution was prepared by using the freshly prepared buffer solution, and then was added into the reaction wells. The DMSO solution of the test compound was added via Echo550, a nanoliter-scale contactless acoustic liquid transferring system, and then pre-incubated at room temperature for 10 minutes. The substrate (1 μLM cGMP) was added to initiate the reaction at room temperature for one hour. The detection system (Transcreener® AMP^2/GMP^2 antibody, AMP2/GMP2 AlexaFluor 633 fluorescent dye) was then added, and the reaction was conducted at room temperature for 90 minutes. Fluorescence polarization was then detected by using Ex/Em 620/688.
The intensity of fluorescence polarization was converted to nM concentration by the AMP/GMP standard curve, and then calculate the relative enzyme activity inhibition relative to the DMSO blank. The IC50 values and curves were calculated by using the Prism software package (GraphPad Software, San Diego Calif., USA)
As to `Cn1cnc2c1c(=O)n(CC1(C)COC1)c(=O)n2C` [Example 3, 3,7-Dimethyl-1-((3-methyloxetan-3-yl)methyl)-1H-purin-2,6(3H, 7H)-dione], the IC50 was in the range of 10 to 50 µM.

Staying with this assay, now noted: human PDE2A, substrate 1 μM cGMP, fluorescence polarization; read-out: PDE2 phosphodiesterase inhibitory activity.
Turning to `CCC1(CCn2c(=O)c3c(ncn3C)n(C)c2=O)CCOC1` (single isomer, unassigned) [Example 12 Isomer 2, 1-(2-(3-Ethyltetrahydro-furan-3-yl)ethyl)-3,7-dimethyl-1H-purin-2,6-(3H,7H)-dione], the IC50 was 10 to 50 µM.
In the case of `CCC1(Cn2c(=O)c3c(ncn3C)n(C)c2=O)CCOCC1` [Example 12 Isomer 1, 1-((4-Ethyltetrahydro-2H-pyran-4-yl)methyl)-3,7-dimethyl-1H-purin-2,6-(3H,7H)-dione], the IC50 was in the range of 10 to 50 µM.
On the same count and under the same terms, under `CC(C)Cn1cnc2c1c(=O)n(CCC1C[C@@H](C)O[C@H](C)C1)c(=O)n2C` (stereo partly drawn) [Example 26, 1-(2-((2R,6R)-2,6-dimethyltetrahydro-2H-pyran-4-yl)ethyl)-7-isobutyl-3-methyl-1H-purin-2,6(3H, 7H)-dione] stands 10 to 50 µM.
As for `CCC1(Cn2c(=O)c3c(ncn3C)n(C)c2=O)COC1` [Example 4, 1-((3-Ethyloxetan-3-yl)methyl)3,7-dimethyl-1H-purin-2,6(3H,7H)-dione], the IC50 was 10 to 50 µM.
`CC(C)n1cnc2c1c(=O)n(CCC1C[C@@H](C)O[C@H](C)C1)c(=O)n2C` (stereo partly drawn) [Example 21, 1-(2-((2R,6R)-2,6-dimethyltetrahydro-2H-pyran-4-yl)ethyl)yl-7-isopropyl-3-methyl-1H-purin-2,6(3H,7H)-dione]: the IC50 was in the range of 10 to 50 µM.
On to `C[C@H]1CC(CCn2c(=O)c3c(ncn3C)n(C)c2=O)C[C@H](C)O1` (stereo partly drawn) [Example 14, 1-[2-((2S,6S)-2,6-dimethyltetrahydro-2H-pyran-4-yl)-ethyl]-3,7-dimethyl-1H-2,6(3H,7H)-dione], for which the IC50 was in the range of 10 to 50 µM.
Turning to `C[C@@H]1CC(CCn2c(=O)c3c(ncn3CC3CC3)n(C)c2=O)C[C@@H](C)O1` (some centres unmarked) [Example 23], the IC50 was 10 to 50 µM.
Same read-out and setting: the figure for `CCC1CC(CCn2c(=O)c3c(ncn3C)n(C)c2=O)CCO1` (centres unmarked) [Example 16] is 10 to 50 µM; for `CCC1OCC1CCn1c(=O)c2c(ncn2C)n(C)c1=O` (centres unmarked) [Example 5, 1-(2-(2-Ethyloxetan-3-yl)ethyl)-3,7-dimethyl-1H-purin-2,6(3H,7H)-dione] it is 10 to 50 µM.
Same read-out and setting: under `C[C@@H]1CC(CCn2c(=O)c3c(ncn3CC(F)(F)F)n(C)c2=O)C[C@@H](C)O1` (stereo partly drawn) [Example 20, 1-(2-((2R,6R)-2,6-dimethyltetrahydro-2H-pyran-4-yl)ethyl)-3-methyl-7-(2,2,2-trifluoroethyl)-1H-purin-2,6 (3H,7H)-dione] stands 10 to 50 µM.
Take `Cn1c(=O)n(CC2(C)COC2)c(=O)c2c1cnn2CC1CC1` [Example 33, 1-(Cyclopropylmethyl)-4-methyl-6-((3-methyloxetan-3-yl)methyl)-pyrazolo[4,3-d]pyrimidin-5,7-dione]: the IC50 lay within 10 to 50 µM.
The same measure, in the same setting: under `COC1CCC(Cn2c(=O)c3c(ncn3C)n(C)c2=O)CC1` (centres unmarked) [Example 18, 1((-4-Methoxycyclohexyl)methyl)-3,7-dimethyl-1H-purin-2,6-(3H,7H)-dione] stands 10 to 50 µM; under `CCC1COCCC1CCn1c(=O)c2c(ncn2C)n(C)c1=O` (centres unmarked) [Example 15, 1-(2-(3-Ethyltetrahydro-2H-pyran-4-yl)ethyl)-3,7-dimethyl-1H-purin-2,6-(3H,7H)-dione], 10 to 50 µM.
The same measure, in the same setting: the figure for `Cn1cnc2c1c(=O)n(CC1(C)CCOCC1)c(=O)n2C` [Example 11 Isomer 1, 3,7-Dimethyl-1-((4-methyltetrahydro-2H-pyran-4-yl)methyl)-1H-purin-2,6-(3H,7H)-dione] is 10 to 50 µM.
